Assay results published in article PMC9732821, “Neurotrophic Activity and Its Modulation by Zinc Ion of a Dimeric Peptide Mimicking the Brain-Derived Neurotrophic Factor N-Terminal Region” (ACS Chemical Neuroscience, 2022).

Legend:
ERK [1] = test: competition experiments, ERK phosphorylation with BDNF plus d-bdnf in differentiated SH-SY5Y cells; type: cell-based, human; details: BDNF 1 nM + d-bdnf 10 nM-100 µM, or d-bdnf 10 µM + BDNF 0.074 nM–10 nM; 10 min; 2 independent replicas
Text: The possibility of mimicking the function of the full-length BDNF protein by using a linear peptide fragment encompassing the first 12 amino acids of the mature NT N-terminal was already postulated.[31] Here, we named this sequence as m-bdnf (Figure 1A) and performed a systematic comparison between the performance of the full-length human BDNF produced recombinantly in Escherichia coli([32]) and (i) m-bdnf, (ii) a dimeric peptide displaying two copies of the m-bdnf sequence covalently bound by a disulfide bridge (d-bdnf), and (iii) a monomeric peptide displaying the scrambled sequence of m-bdnf (s-bdnf). We first investigated the ability of these peptides to activate the TrkB receptor. […] Specifically, an EC50 concentration of BDNF (1 nM) or of d-bdnf (10 μM) was used in combination with the increasing concentration of d-bdnf and BDNF, respectively, and the increase of ERK phosphorylation was assessed. […] Of note, we also performed a non-permeabilizing immunofluorescence analysis to quantify the membrane-bound BDNF in differentiated SH-SY5Y cells in the absence or presence of BDNF and d-bdnf (Figure S1C,D). […] The same increment was not observed upon treatment with the d-bdnf peptide, while instead we measured a slight (∼18%) decrease of the signal possibly due to the ability of the peptide to displace endogenous BDNF at the tested dose (10 μM). […]

ERK [2] = test: ERK phosphorylation in HEK 293 cells, which do not express TrkB; type: cell-based, human; details: increasing concentrations, 10 min, unstimulated control 100%
Description: Figure S1. Evaluation of d-bdnf mechanism of action. A) ERK phosphorylation levels detected in HEK293T cells, after stimulation (10 min) with increasing concentrations of BDNF (white columns) or d-bdnf (grey columns) normalized to the unstimulated control (CTRL, black column) set to 100%.
Dunnett’s multiple comparison test. B) ERK phosphorylation levels detected in differentiated SH-SY5Y cells, after stimulation (10 min) with a combination of a single concentration of BDNF (1 nM referred to monomeric form) with increasing concentrations (10 nM-100 µM) of d-bdnf (left); B) a combination of a single concentration of d-bdnf (10 µM) with increasing concentrations (0.074 nM – 10 nM) of BDNF (right). […] C) Representative confocal fluorescence images of SH-SY5Y cells differentiated with retinoic acid (RA) and treated acutely with BDNF, d-bdnf or a combination of the two. […] Scale bar: 50 µm.D) Scatter dot plot of the mean ± SEM fluorescence intensity of the analyzed fields (nfields) for the different samples (NT: nfields=9 and total ncells= 285; BDNF: nfields=10 and total ncells= 297; d-bdnf: nfields=10 and total ncells= 255 cells; BDNF+d-bdnf: nfields=10 and total ncells= 253 cells; **p<0.01 according to […]
HSDPARRGELSV-NH2 (m-bdnf): Rt = 25.2 min. ESI-MS: calculated for C54H91N21O18: 1322.4 […]
SRAGPHLRDVSE-NH2 (s-bdnf): Rt = 27.4 min. ESI-MS: calculated for C54H91N21O18: 1322.4 […]

Molecule | competition / additivity on ERK phosphorylation (ERK [1]) | ERK phosphorylation in HEK 293 cells (ERK [2])
HSDPARRGELSVC-C-VSLEGRRAPDSH (disulfide) [d-bdnf] | neither antagonist nor additive effects | not significantly different
brain-derived neurotrophic factor (protein, UniProt P23560 1-247, looked up, full-length, full-length human BDNF produced recombinantly in Escherichia coli) MTILFLTMVISYFGCMKAAPMKEANIRGQGGLAYPGVRTHGTLESVNGPKAGSRGLTSLADTFEHVIEELLDEDQKVRPNEENNKDADLYTSRVMLSSQVPLEPPLLFLLEEYKNYLDAANMSMRVRRHSDPARRGELSVCDSISEWVTAADKKTAVDMSGGTVTVLEKVPVSKGQLKQYFYETKCNPMGYTKEGCRGIDKRHWNSQCRTTQSYVRALTMDSKKRIGWRFIRIDTSCVCTLTIKRGR | – | not significantly different
